Laboratory results reported in EP4255430B1, “8-HYDROX[…] PROTEASE INHIBITORS FOR USE IN THE PREVENTION AND/OR TREATMENT OF A CORONA VIRUS DISEASE” (Univerza v Ljubljani, priority 2020, dated 2022).

System: SARS-CoV-2
Assay: High Content Assay: antiviral activity against SARS-CoV-2 in infected Huh7-hACE2 cells (Spike immunofluorescence, infection ratio)
Settings: for EC50 / EC90: Huh7-hACE2 cells, 0.1 MOI, 20 h; for % of inhibition reached (maximal), based on infection ratio values: within tested concentration range, normalized to 50 µM hydroxychloroquine = 100%; for activity against SARS-CoV-2 in Huh7-hACE2 cells (comparison between inhibitors): qualitative ranking; for EC90: read-out: EC90, the effective concentration capable to inhibit 90% of infection, follows the pre-treated values
[1] = treatment condition not restated in the sentence (follows the pre-treated values)
[2] = pre-treated conditions (compounds added 3 hours prior infection)

SMILES	EC50 [1]	% of inhibition reached (maximal), based on infection ratio values	activity against SARS-CoV-2 in Huh7-hACE2 cells (comparison between inhibitors)	EC90	EC50 [2]
CC(C)C[C@H](NC(=O)[C@H]1O[C@@H]1C(=O)O)C(=O)NCCCCN=C(N)N (relative stereo) [Compound E64]	higher concentrations	< 100%			
CN(C)C(=O)[C@H](Cc1ccccc1)NC(=O)C1OC1C(=O)NCCc1ccccn1 (stereo in doubt) [CLIK 148, N-{L-3-trans-[2-(pyridin-2-yl)ethylcarbamoyl]-oxirane-2-carbonyl}-L-Phe dimethylamide]	higher concentrations	< 100%			
CC1CCN(Cc2cc([N+](=O)[O-])c3cccnc3c2O)CC1 [Compound 3, 7-[(4-methylpiperidin-1yl)methyl]-5-nitroquinolin-8-ol]		100%	stronger effect than CLIK 148, but weaker than Nitroxoline and Compound 17	10 µM	
N#CCNCc1cc([N+](=O)[O-])c2cccnc2c1O [Compound 17, 2-{[(8-hydroxy-5-nitroquinoline-7-yl)methyl]amino}-acetonitrile]		100%	highest activity	3.3 µM	1.9 µM
CCOC(=O)[C@H]1O[C@@H]1C(=O)N[C@@H](CC(C)C)C(=O)NCCC(C)C [Compound E64d, (2S,3S)-trans-Epoxysuccinyl-L-leucylamido-3-methylbutane ethyl ester]		< 100%			
O=[N+]([O-])c1ccc(O)c2ncccc12 [Nitroxoline, 5-nitro-8-hydroxyquinoline]		100%	highest activity	7.9 µM	1.9 µM
